Measurements reported in US6949574B2 (Bristol-Myers Squibb Company, priority 2002, dated 2005).
Read-outs that look alike come from different tables or passages of the source.

How the values were obtained:
[1] = tested on: carrageenan-induced edema; experiment: Paw edema model (inflammation-induced edema), plethysmometry; assay type: in vivo, rat
Description: PAW EDEMA MODEL (Inflammation-induced Edema) The effects of Example 5 on carrageenan-induced edema were examined in a quantitative manner (plethysmometry).

[2] = tested on: thermal hyperalgesia induced by paw carrageenan; experiment: Carrageenan-induced thermal hyperalgesia (chronic inflammatory pain); assay type: in vivo, rat
Description: FIG. 1 illustrates results from a rat carrageen-induced thermal hypergesia model used for measuring chronic inflammatory pain.
The following in vivo pain models below utilized Example 5. […] Paw carrageenan injection (⋄, 0:45 hr, Carr) produced strong thermal hyperalgesia as evidenced by the short escape latencies seen in vehicle treated rats (⋄, 2:15 hr, Carr) as compared to the long baseline latencies (0:00 hr). […] Data are mean+/−s.e.m. (n=8 per group). *p<0.05, **p<0.01 Tukey's HSD, compared to vehicle.

[3] = target: T1, human FAAH (Homo sapiens, UniProt O00519); experiment: FAAH activity in membrane homogenates of H4-FAAH cells, [3H]-anandamide hydrolysis; assay type: biochemical; settings: H4-FAAH cell membranes, 10 μM anandamide, room temperature, one hour; read-out: IC50
T1 construct: expressed in transfected cells; host or cells: H4 cells (H4-FAAH, Geneticin-selected); crude membrane homogenates
T1 sequence (O00519 1-579): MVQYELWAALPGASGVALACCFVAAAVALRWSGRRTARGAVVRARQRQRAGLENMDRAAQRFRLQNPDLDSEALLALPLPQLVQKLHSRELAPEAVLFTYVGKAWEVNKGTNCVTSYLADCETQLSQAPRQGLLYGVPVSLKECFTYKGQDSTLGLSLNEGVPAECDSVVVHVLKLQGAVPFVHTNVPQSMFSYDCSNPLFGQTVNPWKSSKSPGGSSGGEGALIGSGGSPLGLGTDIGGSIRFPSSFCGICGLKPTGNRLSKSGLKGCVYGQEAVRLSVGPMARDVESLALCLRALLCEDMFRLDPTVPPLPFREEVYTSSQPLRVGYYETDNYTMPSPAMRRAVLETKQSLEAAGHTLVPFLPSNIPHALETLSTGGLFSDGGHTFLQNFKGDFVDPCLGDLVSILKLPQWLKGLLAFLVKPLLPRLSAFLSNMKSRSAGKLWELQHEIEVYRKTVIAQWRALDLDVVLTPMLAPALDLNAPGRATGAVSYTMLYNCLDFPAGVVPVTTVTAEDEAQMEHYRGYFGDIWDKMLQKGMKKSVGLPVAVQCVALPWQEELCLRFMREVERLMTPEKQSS
Summary of the method: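 Membranes (240 ng protein) from H4 cells expressing transfected human FAAH, incubated 1 h at room temperature in 125 mM Tris-Cl, pH 9.0, with 1.67 nM [3H]-anandamide plus 10 μM anandamide. Aqueous [3H]-ethanolamine counted after methanol/dichloroethane extraction; background set with 10 μM ATFMK. IC50 from four-parameter logistic fit.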

[4] = tested on: acute thermal pain behavior; assay type: in vivo, rat
Description: FIG. 2 illustrates results from a rat Hargreaves test used for measuring acute thermal pain.
Data are mean+/−s.e.m. (n=8 per group). **p<0.01 Dunnett's Test, compared to vehicle control.

Compound | inhibition of swelling (combined total paw volume) ([1]; 1 mg/kg ip) | side effects ([2]; 40 mg/kg, i.p.) | thermal escape latencies of drug treated animals ([2]; 40 mg/kg, i.p., at 2:15 hr) | development of thermal hyperalgesia ([2]; 40 mg/kg, i.p., pretreatment before paw carrageenan) | thermal escape responses after second injection ([2]; second injection 40 mg/kg i.p. at 3:00 hr, 3:00-4:00 hr) | IC50 [3] | side effects ([4]; 10 mg/kg i.v.) | side effects ([4]; 30 mg/kg i.v.) | acute thermal pain behavior ([4]; 10 & 30 mg/kg, i.v. hand infusion, 15 min post injection, did not persist beyond this time) | inhibition of swelling (combined total paw volume) ([1]; 20 mg/kg ip) | inhibition of swelling (combined total paw volume) ([1]; 40 mg/kg ip at -30 min and +2 hr relative to carrageenan, measured 3 hours post-injection)
C[C@@H]1C[C@H]2[C@@H]3CCC4=CC(=O)C=C[C@]4(C)[C@@]3(F)[C@@H](O)C[C@]2(C)[C@@]1(O)C(=O)CO [dexamethasone, reference compound] | 70% | – | – | – | – | – | – | – | – | – | –
CCCCOc1ccc(NC(=O)O/N=C/c2ccc(F)cc2)cc1 [Example 5, 4-Fluorobenzaldehyde, O-[[(4-butoxyphenyl)amino]carbonyl]oxime] | – | No side effects were observed | comparable to baseline | suppressed the development of thermal hyperalgesia | maintained thermal escape responses at basal levels for another hour | < 10 nM | No significant side effects were observed | strong sedation, reduced activity and splayed hindlimbs | significant reversal of acute thermal pain behavior | no efficacy | 26%
